Data taken from patent publication US20070292908A1, “Method for Detecting Streptococcus Agalactiae Using Alpha-Glucosidase Activity” (BIOMERIEUX, priority 2004, published 2007).
One block for each compound: values may come before it.

Experiments:
Streptococcus agalactiae [1] = assay: Detection of Streptococcus agalactiae strains on reaction media containing an α-glucosidase enzymatic substrate; assay type: cell-based; conditions: substrate 0.1 g/l; for intensity (I) of coloration: arbitrary scale 0 to 4
Method: The reaction media were prepared by mixing heart-brain extract (4.84 g/l; Solabia), meat infusion (1.96 g/l; Solabia), biothione (1 g/l; Solabia), biotrypcase (7.2 g/l; Solabia), sodium carbonate (0.3 g/l; VWR), sodium pyruvate (2 g/l; Fluka), HEPES buffer (0.4 g/l; Sigma), lactalbumin peptone (2 g/l; DMV), glucose (1 g/l; Merck), American agar (2 g/l; Sobigel) and European agar (12 g/l; Roko).
The media were then poured into a Petri dish for subsequent inoculation with bacterial strains.
Eight Streptococcus agalactiae strains derived from the applicant's collection, suspended in physiological saline, were inoculated so as to give isolated colonies on each of the media. The dishes were then incubated at 37° C. for 48 hours. The colonies formed are examined visually after 18, 24 and more than 40 hours of incubation. The coloration of these colonies, the growth and also the intensity of this coloration were noted.
The results are given in table 1 below and are expressed: • in terms of growth (G) with the size being indicated in mm, • in terms of intensity (1) of coloration based on an arbitrary scale ranging from 0 to 4, 0 corresponding to an absence of activity and 4 corresponding to the presence of a very intense coloration, • in terms of color (Co) with T=turquoise, R=pink or red, Gr=green, Mg=magenta, • according to the incubation time in hours (T).

Streptococcus agalactiae [2] = assay: Number of strains detected as a function of the concentration of α-glucosidase substrate; assay type: cell-based; conditions: positive when I≧0.6, 8 strains
Source text: The above protocol was repeated, with the exception that the concentration of enzymatic substrate was varied.
Table 2 below gives the number of strains detected (considered to be positive when I≧0.6) as a function of the concentration of substrate.

[3] = strain 0008200, 18 h incubation
[4] = strain 0008200, 24 h incubation
[5] = strain 0008200, >40 h incubation
[6] = strain 0008206, 18 h incubation
[7] = strain 0008206, 24 h incubation
[8] = strain 0008206, >40 h incubation
[9] = strain 0101060, 18 h incubation
[10] = strain 0101060, 24 h incubation
[11] = strain 0101060, >40 h incubation
[12] = strain 7611003, 18 h incubation
[13] = strain 7611003, 24 h incubation
[14] = strain 7611003, >40 h incubation
[15] = strain 7701031, 18 h incubation
[16] = strain 7701031, 24 h incubation
[17] = strain 7701031, >40 h incubation
[18] = strain 7702055, 18 h incubation
[19] = strain 7702055, 24 h incubation
[20] = strain 7702055, >40 h incubation
[21] = strain 8709013, 18 h incubation
[22] = strain 8709013, 24 h incubation
[23] = strain 8709013, >40 h incubation
[24] = strain 8904053, 18 h incubation
[25] = strain 8904053, 24 h incubation
[26] = strain 8904053, >40 h incubation
[27] = substrate 100 mg/l, incubation 24 h
[28] = substrate 100 mg/l, incubation 48 h
[29] = substrate 200 mg/l, incubation 24 h
[30] = substrate 200 mg/l, incubation 48 h
[31] = substrate 300 mg/l, incubation 24 h
[32] = substrate 300 mg/l, incubation 48 h

Compound: 5-bromo-4-chloro-3-indolyl-α-D-glucopyranoside [X-alpha-Glu]
intensity (I) of coloration (Streptococcus agalactiae [1]; strain 0008200, 18 h): 0.3
growth (G), size (Streptococcus agalactiae [1]; [3]): 0.7 mm
intensity (I) of coloration (Streptococcus agalactiae [1]; strain 0008200, 24 h): 0.6
growth (G), size (Streptococcus agalactiae [1]; [4]): 0.7 mm
intensity (I) of coloration (Streptococcus agalactiae [1]; strain 0008200, >40 h): 2.3
growth (G), size (Streptococcus agalactiae [1]; [5]): 0.8 mm
intensity (I) of coloration (Streptococcus agalactiae [1]; strain 0008206, 18 h): 0.3
growth (G), size (Streptococcus agalactiae [1]; [6]): 0.7 mm
intensity (I) of coloration (Streptococcus agalactiae [1]; strain 0008206, 24 h): 1
growth (G), size (Streptococcus agalactiae [1]; [7]): 0.7 mm
intensity (I) of coloration (Streptococcus agalactiae [1]; strain 0008206, >40 h): 2
growth (G), size (Streptococcus agalactiae [1]; [8]): 0.8 mm
intensity (I) of coloration (Streptococcus agalactiae [1]; strain 0101060, 18 h): 2.7
growth (G), size (Streptococcus agalactiae [1]; [9]): 0.4 mm
intensity (I) of coloration (Streptococcus agalactiae [1]; strain 0101060, 24 h): 3
growth (G), size (Streptococcus agalactiae [1]; [10]): 0.5 mm
intensity (I) of coloration (Streptococcus agalactiae [1]; strain 0101060, >40 h): 4
growth (G), size (Streptococcus agalactiae [1]; [11]): 0.7 mm
intensity (I) of coloration (Streptococcus agalactiae [1]; strain 7611003, 18 h): 2.3
growth (G), size (Streptococcus agalactiae [1]; [12]): 1 mm
intensity (I) of coloration (Streptococcus agalactiae [1]; strain 7611003, 24 h): 2.7
growth (G), size (Streptococcus agalactiae [1]; [13]): 1.2 mm
intensity (I) of coloration (Streptococcus agalactiae [1]; strain 7611003, >40 h): 3
growth (G), size (Streptococcus agalactiae [1]; [14]): 1.5 mm
growth (G), size (Streptococcus agalactiae [1]; [15]): 0.5 mm
growth (G), size (Streptococcus agalactiae [1]; [16]): 0.7 mm
growth (G), size (Streptococcus agalactiae [1]; [17]): 1.2 mm
intensity (I) of coloration (Streptococcus agalactiae [1]; strain 7702055, 18 h): 0.5
growth (G), size (Streptococcus agalactiae [1]; [18]): 0.7 mm
intensity (I) of coloration (Streptococcus agalactiae [1]; strain 7702055, 24 h): 1
growth (G), size (Streptococcus agalactiae [1]; [19]): 1 mm
intensity (I) of coloration (Streptococcus agalactiae [1]; strain 7702055, >40 h): 3
growth (G), size (Streptococcus agalactiae [1]; [20]): 1.7 mm
intensity (I) of coloration (Streptococcus agalactiae [1]; strain 8709013, 18 h): 0.1
growth (G), size (Streptococcus agalactiae [1]; [21]): 0.4 mm
intensity (I) of coloration (Streptococcus agalactiae [1]; strain 8709013, 24 h): 0.6
growth (G), size (Streptococcus agalactiae [1]; [22]): 0.5 mm
intensity (I) of coloration (Streptococcus agalactiae [1]; strain 8709013, >40 h): 2
growth (G), size (Streptococcus agalactiae [1]; [23]): 0.7 mm
intensity (I) of coloration (Streptococcus agalactiae [1]; strain 8904053, 18 h): 0.3
growth (G), size (Streptococcus agalactiae [1]; [24]): 0.7 mm
intensity (I) of coloration (Streptococcus agalactiae [1]; strain 8904053, 24 h): 0.6
growth (G), size (Streptococcus agalactiae [1]; [25]): 0.7 mm
intensity (I) of coloration (Streptococcus agalactiae [1]; strain 8904053, >40 h): 2.3
growth (G), size (Streptococcus agalactiae [1]; [26]): 0.8 mm
number of strains detected (Streptococcus agalactiae [2]; [27]): 3/8
number of strains detected (Streptococcus agalactiae [2]; [28]): 7/8
number of strains detected (Streptococcus agalactiae [2]; [29]): 7/8
number of strains detected (Streptococcus agalactiae [2]; [30]): 7/8
number of strains detected (Streptococcus agalactiae [2]; [31]): 7/8
number of strains detected (Streptococcus agalactiae [2]; [32]): 7/8

intensity (I) of coloration (Streptococcus agalactiae [1]; strain 0008200, 18 h): 0.1
growth (G), size (Streptococcus agalactiae [1]; [3]): 0.7 mm
intensity (I) of coloration (Streptococcus agalactiae [1]; strain 0008200, 24 h): 0.3
growth (G), size (Streptococcus agalactiae [1]; [4]): 0.7 mm
intensity (I) of coloration (Streptococcus agalactiae [1]; strain 0008200, >40 h): 1.7
growth (G), size (Streptococcus agalactiae [1]; [5]): 0.7 mm
intensity (I) of coloration (Streptococcus agalactiae [1]; strain 0008206, 18 h): 0.3
growth (G), size (Streptococcus agalactiae [1]; [6]): 0.7 mm
intensity (I) of coloration (Streptococcus agalactiae [1]; strain 0008206, 24 h): 0.5
growth (G), size (Streptococcus agalactiae [1]; [7]): 0.8 mm
intensity (I) of coloration (Streptococcus agalactiae [1]; strain 0008206, >40 h): 2
growth (G), size (Streptococcus agalactiae [1]; [8]): 1.2 mm
intensity (I) of coloration (Streptococcus agalactiae [1]; strain 0101060, 18 h): 0.5
growth (G), size (Streptococcus agalactiae [1]; [9]): 0.4 mm
intensity (I) of coloration (Streptococcus agalactiae [1]; strain 0101060, 24 h): 0.8
growth (G), size (Streptococcus agalactiae [1]; [10]): 0.5 mm
intensity (I) of coloration (Streptococcus agalactiae [1]; strain 0101060, >40 h): 3
growth (G), size (Streptococcus agalactiae [1]; [11]): 0.7 mm
intensity (I) of coloration (Streptococcus agalactiae [1]; strain 7611003, 18 h): 0.5
growth (G), size (Streptococcus agalactiae [1]; [12]): 1 mm
intensity (I) of coloration (Streptococcus agalactiae [1]; strain 7611003, 24 h): 0.8
growth (G), size (Streptococcus agalactiae [1]; [13]): 1 mm
intensity (I) of coloration (Streptococcus agalactiae [1]; strain 7611003, >40 h): 2
growth (G), size (Streptococcus agalactiae [1]; [14]): 1.3 mm
growth (G), size (Streptococcus agalactiae [1]; [15]): 0.5 mm
growth (G), size (Streptococcus agalactiae [1]; [16]): 0.7 mm
intensity (I) of coloration (Streptococcus agalactiae [1]; strain 7701031, >40 h): 0.5
growth (G), size (Streptococcus agalactiae [1]; [17]): 1.2 mm
growth (G), size (Streptococcus agalactiae [1]; [18]): 0.7 mm
intensity (I) of coloration (Streptococcus agalactiae [1]; strain 7702055, 24 h): 0.3
growth (G), size (Streptococcus agalactiae [1]; [19]): 1 mm
intensity (I) of coloration (Streptococcus agalactiae [1]; strain 7702055, >40 h): 2.3
growth (G), size (Streptococcus agalactiae [1]; [20]): 1.7 mm
growth (G), size (Streptococcus agalactiae [1]; [21]): 0.5 mm
growth (G), size (Streptococcus agalactiae [1]; [22]): 0.5 mm
intensity (I) of coloration (Streptococcus agalactiae [1]; strain 8709013, >40 h): 0.8
growth (G), size (Streptococcus agalactiae [1]; [23]): 0.7 mm
growth (G), size (Streptococcus agalactiae [1]; [24]): 0.7 mm
intensity (I) of coloration (Streptococcus agalactiae [1]; strain 8904053, 24 h): 0.3
growth (G), size (Streptococcus agalactiae [1]; [25]): 0.7 mm
intensity (I) of coloration (Streptococcus agalactiae [1]; strain 8904053, >40 h): 1.7
growth (G), size (Streptococcus agalactiae [1]; [26]): 0.8 mm
number of strains detected (Streptococcus agalactiae [2]; [27]): 1/8
number of strains detected (Streptococcus agalactiae [2]; [28]): 7/8
number of strains detected (Streptococcus agalactiae [2]; [29]): 5/8
number of strains detected (Streptococcus agalactiae [2]; [30]): 8/8
number of strains detected (Streptococcus agalactiae [2]; [31]): 6/8
number of strains detected (Streptococcus agalactiae [2]; [32]): 8/8
Compound: OC[C@H]1O[C@H](Oc2c[nH]c3cc(Br)ccc23)[C@H](O)[C@@H](O)[C@@H]1O [RedA-alpha-Glu, 6-bromo-3-indolyl-α-D-glucopyranoside]
